# Laboratory results: ChEMBL document CHEMBL1201862, “PubChem BioAssay data set” (2004)
# Activity calls are given as the source filed them.
# What was measured:
# Protein Wnt-3a = Protein Wnt-3a (Mus musculus, UniProt P27467); test: Wnt3a-driven reporter signaling inhibition, dose response, selectivity assay for Gli-SUFU antagonist project, Wnt-LIGHT cells, luminescence (AID 651570); assay type: functional; details: read-out: IC50_Mean;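 further: Wnt-LIGHT reporter cells stimulated with conditioned medium from Wnt3a-producing cells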
# [1] = target: T1, High affinity choline transporter 1 (Homo sapiens, UniProt Q9GZV3); test: CHT inhibitors, dose response, cell-based, 5-point CRC, membrane potential dye (AID 504840); assay type: functional
# T1 sequence (Q9GZV3 whole entry): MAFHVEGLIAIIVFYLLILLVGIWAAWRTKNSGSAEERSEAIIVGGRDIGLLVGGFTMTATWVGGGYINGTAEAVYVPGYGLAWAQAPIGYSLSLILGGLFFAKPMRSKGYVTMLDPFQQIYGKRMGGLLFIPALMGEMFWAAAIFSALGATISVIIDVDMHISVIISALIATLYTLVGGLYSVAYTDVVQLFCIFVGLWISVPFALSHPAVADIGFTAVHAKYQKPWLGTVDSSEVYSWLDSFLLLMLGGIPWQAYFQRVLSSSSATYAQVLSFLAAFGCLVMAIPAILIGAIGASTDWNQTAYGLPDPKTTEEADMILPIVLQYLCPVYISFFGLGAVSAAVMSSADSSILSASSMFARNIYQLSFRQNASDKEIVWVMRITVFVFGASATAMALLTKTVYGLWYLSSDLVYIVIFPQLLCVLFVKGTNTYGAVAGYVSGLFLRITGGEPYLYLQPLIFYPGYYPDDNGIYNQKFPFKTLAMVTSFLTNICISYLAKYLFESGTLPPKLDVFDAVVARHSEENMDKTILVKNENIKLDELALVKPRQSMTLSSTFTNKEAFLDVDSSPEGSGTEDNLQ
# [2] = target: T1, High affinity choline transporter 1; test: CHT inhibitors, dose response, cell-based, 10-point CRC, membrane potential dye (AID 588401); assay type: functional;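 further: membrane potential dye fluorescence of choline-evoked depolarization via CHT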
# Melanocortin receptor 4 = Melanocortin receptor 4 (Homo sapiens, UniProt P32245); assay type: functional, cell-based;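 further: Cell-based assay with luminescence read-out, confirmatory dose-response testing for agonist activity of biased ligands at MC4R; human U2OS cells with tagged receptor and beta-arrestin; potency of agonists that increase receptor coupling to beta-arrestin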
# [3] = inhibitors of intracellular T. cruzi replication, confirmation, NIH3T3 host cells, beta-gal luminescence (AID 2044); assay type: functional, cell-based;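 further: intracellular parasites grown in NIH/3T3 mouse fibroblasts as host cells; luminescent beta-galactosidase reporter signal from transgenic T. cruzi replicating inside host cells; inhibitors lower the luminescence signal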
# [4] = growth suppression of PTEN-null colon cells, dose response, cell-based, HCT116 PTEN knockout (AID 1047); assay type: functional;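 further: HCT116 colon tumor cells with PTEN knocked out; cells exposed to compound for 60 hours before readout; potency for loss of cell viability measured by luminescence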
# [5] = cytotoxicity toward NIH3T3 fibroblasts, dose response, counter-screen, cell-based, ATP luminescence, mouse fibroblasts (AID 2010); assay type: functional;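 further: cells exposed to compound for about 90 hours before reading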
# [6] = growth suppression of beta-catenin-knockout colon cells, dose response, cell-based, HCT116, human colon tumor (AID 1045); assay type: functional;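 further: HCT116 colon tumor cells with beta catenin knocked out; cells exposed to compound for 60 hours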
# [7] = target: Delta-type opioid receptor (Homo sapiens, UniProt P41143); test: Counterscreen for agonists of heterodimerization of the mu 1 (OPRM1) and delta 1 (OPRD1) opioid receptors: Luminescence-based cell-based high throughput dose response assay to identify agonists of OPRD1 homodimerization. [Related pubchem assays (depositor defined):AID504326, AID504355, AID504692, AID504904, AID504905]; assay type: functional
# Mu-type opioid receptor = Mu-type opioid receptor (Homo sapiens, UniProt P35372); test: Counterscreen for agonists of heterodimerization of the mu 1 (OPRM1) and delta 1 (OPRD1) opioid receptors: Luminescence-based cell-based high throughput dose response assay to identify agonists of OPRM1 homodimerization.; assay type: functional;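 further: U2OS cells expressing OPRM1 and beta-arrestin as split beta-galactosidase partners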
# [8] = target: 5-hydroxytryptamine receptor 5A (Homo sapiens, UniProt P47898); test: Counterscreen for agonists of OPRM1-OPRD1 heterodimerization: luminescence-based cell-based high throughput dose response assay to identify agonists of 5-hydroxytryptamine (serotonin) 5A receptor (HTR5A). [Related pubchem assays (depositor defined):AID504326, AID504355, AID504692, AID504904, AID504905]; assay type: functional
# [9] = Shn3 3'UTR reporter inhibitors, dose response, cell-based, Clone20 osteoblasts, firefly luciferase, cherry-picked (AID 624132); assay type: functional;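 further: firefly luciferase luminescence from reporter carrying the Shn3 3'UTR in osteoblasts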
# [10] = HepG2 cell cytotoxicity, dose response, cytotoxicity control for Shn3 inhibitor project, CellTiter-Glo, cherry-picked (AID 624134); assay type: functional, cell-based
# [11] = control 3'UTR Renilla luciferase suppression, dose response, counter-screen for Shn3 inhibitor project, cell-based, Clone20-Shn3RL, cherry-picked (AID 624133); assay type: functional
# Insulin-degrading enzyme [12] = target: T2, Insulin-degrading enzyme (Homo sapiens, UniProt P14735); test: activators of recombinant IDE enzyme, dose response, counter-screen for IDE activator project, biochemical, fluorescence polarization (AID 588681)
# T2 sequence (P14735 whole entry): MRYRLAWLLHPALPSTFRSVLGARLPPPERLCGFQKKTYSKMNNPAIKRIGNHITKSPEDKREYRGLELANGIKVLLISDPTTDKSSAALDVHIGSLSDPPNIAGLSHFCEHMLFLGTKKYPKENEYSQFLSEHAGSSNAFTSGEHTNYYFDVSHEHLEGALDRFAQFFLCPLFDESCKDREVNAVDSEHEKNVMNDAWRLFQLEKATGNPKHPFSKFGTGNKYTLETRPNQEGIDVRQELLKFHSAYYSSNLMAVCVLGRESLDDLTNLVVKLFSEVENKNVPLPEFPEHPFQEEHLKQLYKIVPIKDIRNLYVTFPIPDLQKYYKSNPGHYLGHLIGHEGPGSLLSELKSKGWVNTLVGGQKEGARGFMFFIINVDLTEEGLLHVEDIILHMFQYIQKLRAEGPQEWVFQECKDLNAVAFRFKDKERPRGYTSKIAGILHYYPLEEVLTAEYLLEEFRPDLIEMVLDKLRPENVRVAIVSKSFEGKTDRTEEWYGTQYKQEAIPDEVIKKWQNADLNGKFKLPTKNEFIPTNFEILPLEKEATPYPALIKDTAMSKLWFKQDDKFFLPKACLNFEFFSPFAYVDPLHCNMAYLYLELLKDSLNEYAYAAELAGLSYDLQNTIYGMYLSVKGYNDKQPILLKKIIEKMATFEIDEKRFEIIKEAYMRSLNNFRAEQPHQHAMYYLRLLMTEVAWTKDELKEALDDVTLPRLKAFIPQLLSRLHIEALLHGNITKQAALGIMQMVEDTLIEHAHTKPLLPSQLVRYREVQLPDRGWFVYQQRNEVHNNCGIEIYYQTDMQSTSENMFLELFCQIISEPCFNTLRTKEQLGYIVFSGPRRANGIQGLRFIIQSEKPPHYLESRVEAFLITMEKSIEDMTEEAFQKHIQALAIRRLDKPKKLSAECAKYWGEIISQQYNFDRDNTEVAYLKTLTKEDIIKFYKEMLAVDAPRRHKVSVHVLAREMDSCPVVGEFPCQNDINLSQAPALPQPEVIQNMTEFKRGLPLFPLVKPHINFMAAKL
# Insulin-degrading enzyme [13] = target: T2, Insulin-degrading enzyme; test: activators of endogenous IDE in HEK cells, dose response, cell-based, fluorescence polarization (AID 588439); assay type: functional
# HEK293 [14] = test: HEK cell cytotoxicity by LDH release, dose response, cytotoxicity control for IDE activator project, fluorescence, HEK cells (AID 588440); assay type: functional, cell-based; details: Homo sapiens;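 further: cytotoxicity by LDH release measuring loss of membrane integrity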
# HEK293 [15] = test: optical interference in Abeta FP readout, dose response, artefact control for IDE activator project, biochemical, fluorescence polarization (AID 588442); assay type: functional, cell-based; details: Homo sapiens
# [16] = target: G-protein coupled receptor 35 (Homo sapiens, UniProt Q9HC97); test: GPR35 antagonists blocking zaprinast-driven arrestin recruitment, primary screen, imaging, U2OS, beta-arrestin-GFP, zaprinast agonist (AID 2058); assay type: functional;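 further: antagonist potency meaning inhibition of agonist-induced arrestin redistribution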
# Beta-lactamase [17] = target: Beta-lactamase (Pseudomonas aeruginosa, UniProt Q79MP6);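 further: biochemical dose-response test of metallo-beta-lactamase enzyme inhibition, read out by epi-absorbance; purified recombinant IMP-1 metallo-beta-lactamase with nitrocefin as substrate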
# [18] = target: T3, Calpain-2 catalytic subunit (Sus scrofa, UniProt P43367); test: pig calpain II inhibitor potency, dose response, biochemical, fluorogenic peptide substrate (AID 1420); assay type: functional
# T3 sequence (P43367 whole entry): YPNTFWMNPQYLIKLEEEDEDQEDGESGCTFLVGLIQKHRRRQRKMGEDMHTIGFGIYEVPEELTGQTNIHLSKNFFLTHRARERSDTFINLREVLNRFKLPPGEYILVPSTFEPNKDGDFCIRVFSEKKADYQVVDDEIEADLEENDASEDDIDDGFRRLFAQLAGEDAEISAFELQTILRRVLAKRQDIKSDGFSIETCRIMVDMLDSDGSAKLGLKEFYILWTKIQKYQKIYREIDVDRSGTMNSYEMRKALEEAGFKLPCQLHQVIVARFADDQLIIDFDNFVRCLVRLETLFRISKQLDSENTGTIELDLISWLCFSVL
# Beta-lactamase [19] = target: Beta-lactamase (Salmonella choleraesuis (strain SC-B67), UniProt Q5J463)
# [20] = enhancers of respiration in Yfh1-depleted yeast, dose response, Friedreich's ataxia, plus single-dose screen (AID 1465); assay type: functional;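 further: yeast depleted of Yfh1p frataxin homolog grown on glycerol needing respiration; WST-1 tetrazolium dye reduction as measure of cellular dehydrogenase metabolic activity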
# [21] = target: ALK tyrosine kinase receptor (Homo sapiens, UniProt Q9UM73); assay type: functional;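 further: ALK tested as one member of a kinase panel screen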
# Aurora kinase A = target: T4, Aurora kinase A (Homo sapiens, UniProt O14965); assay type: functional;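 further: value from the Navigating the Kinome kinase panel profiling, panel entry STK6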
# T4 sequence (O14965 whole entry): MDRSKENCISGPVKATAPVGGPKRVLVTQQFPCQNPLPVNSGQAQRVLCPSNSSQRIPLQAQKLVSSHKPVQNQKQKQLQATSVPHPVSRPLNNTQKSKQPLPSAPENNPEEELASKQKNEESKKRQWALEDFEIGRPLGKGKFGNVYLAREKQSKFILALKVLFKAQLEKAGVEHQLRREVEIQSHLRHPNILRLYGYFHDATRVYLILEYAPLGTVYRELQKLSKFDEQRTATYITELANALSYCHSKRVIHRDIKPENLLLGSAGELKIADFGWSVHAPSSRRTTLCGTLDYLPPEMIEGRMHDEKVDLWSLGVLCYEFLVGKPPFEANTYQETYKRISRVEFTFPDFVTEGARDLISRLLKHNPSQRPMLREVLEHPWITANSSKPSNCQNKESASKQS
# Aurora kinase B = Aurora kinase B (Homo sapiens, UniProt Q96GD4); assay type: functional
# [22] = target: Melanin-concentrating hormone receptor 1 (Homo sapiens, UniProt Q99705); test: Late-stage fluorescence-based counterscreen for antagonists of the G-protein coupled receptor 7 (GPR7): cell-based dose response assay to identify antagonists of the melanin-concentrating hormone receptor 1 (MCHR1) Set 6.; assay type: functional
# [23] = target: T5, Neuropeptides B/W receptor type 1 (Homo sapiens, UniProt P48145); test: GPR7 antagonist potency, late-stage follow-up, cell-based, fluorescence, dose response, set 6 (AID 588583); assay type: functional
# T5 sequence (P48145 whole entry): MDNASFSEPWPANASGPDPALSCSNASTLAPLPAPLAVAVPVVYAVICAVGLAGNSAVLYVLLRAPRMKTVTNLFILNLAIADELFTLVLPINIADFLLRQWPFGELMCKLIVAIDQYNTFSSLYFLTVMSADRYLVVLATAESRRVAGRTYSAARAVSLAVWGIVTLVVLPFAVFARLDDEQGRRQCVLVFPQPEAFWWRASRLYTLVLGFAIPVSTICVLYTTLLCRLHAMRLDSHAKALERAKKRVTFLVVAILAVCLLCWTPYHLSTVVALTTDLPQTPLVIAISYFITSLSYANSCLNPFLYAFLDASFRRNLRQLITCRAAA
# [24] = target: Vascular endothelial growth factor receptor 2 (Homo sapiens, UniProt P35968); assay type: functional
# Aurora kinase B, sequence (Q96GD4 whole entry): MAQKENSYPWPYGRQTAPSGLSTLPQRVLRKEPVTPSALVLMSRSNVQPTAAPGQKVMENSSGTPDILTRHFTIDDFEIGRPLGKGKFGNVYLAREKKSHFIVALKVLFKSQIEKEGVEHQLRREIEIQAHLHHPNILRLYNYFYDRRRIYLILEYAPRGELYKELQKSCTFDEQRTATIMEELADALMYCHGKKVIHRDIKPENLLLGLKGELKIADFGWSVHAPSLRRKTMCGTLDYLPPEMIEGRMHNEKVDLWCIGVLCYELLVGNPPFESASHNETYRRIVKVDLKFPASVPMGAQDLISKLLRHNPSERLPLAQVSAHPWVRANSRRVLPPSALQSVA
# Melanin-concentrating hormone receptor 1, sequence (Q99705 whole entry): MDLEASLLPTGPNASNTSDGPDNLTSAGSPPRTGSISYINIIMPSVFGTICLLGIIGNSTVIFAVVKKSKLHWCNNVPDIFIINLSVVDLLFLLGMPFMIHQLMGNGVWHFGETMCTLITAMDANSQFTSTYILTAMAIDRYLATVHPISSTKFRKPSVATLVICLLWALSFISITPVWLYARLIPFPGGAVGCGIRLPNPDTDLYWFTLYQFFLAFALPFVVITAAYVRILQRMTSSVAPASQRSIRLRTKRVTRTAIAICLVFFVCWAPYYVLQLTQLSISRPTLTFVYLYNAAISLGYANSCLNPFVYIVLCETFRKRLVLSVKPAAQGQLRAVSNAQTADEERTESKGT
# 5-hydroxytryptamine receptor 5A, sequence (P47898 whole entry): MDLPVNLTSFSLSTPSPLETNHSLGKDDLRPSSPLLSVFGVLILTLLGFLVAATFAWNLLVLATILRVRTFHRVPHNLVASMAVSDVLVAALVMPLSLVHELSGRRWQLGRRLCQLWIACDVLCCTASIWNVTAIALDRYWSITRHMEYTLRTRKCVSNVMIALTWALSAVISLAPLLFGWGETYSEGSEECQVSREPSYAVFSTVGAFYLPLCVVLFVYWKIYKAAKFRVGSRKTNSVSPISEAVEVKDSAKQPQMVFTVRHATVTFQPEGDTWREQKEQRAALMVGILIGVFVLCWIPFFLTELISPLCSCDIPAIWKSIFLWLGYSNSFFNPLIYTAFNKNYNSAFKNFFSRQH
# G-protein coupled receptor 35, sequence (Q9HC97 whole entry): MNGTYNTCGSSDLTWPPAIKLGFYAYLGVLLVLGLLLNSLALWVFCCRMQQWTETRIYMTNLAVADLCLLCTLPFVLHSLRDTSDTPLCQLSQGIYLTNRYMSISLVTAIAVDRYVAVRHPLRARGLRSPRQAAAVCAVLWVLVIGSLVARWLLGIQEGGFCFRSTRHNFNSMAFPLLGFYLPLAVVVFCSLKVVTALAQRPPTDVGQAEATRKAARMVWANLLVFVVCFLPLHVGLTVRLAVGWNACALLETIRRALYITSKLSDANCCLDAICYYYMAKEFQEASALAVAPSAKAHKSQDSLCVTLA
# Beta-lactamase (Salmonella choleraesuis (strain SC-B67), UniProt Q5J463), sequence (Q5J463 whole entry): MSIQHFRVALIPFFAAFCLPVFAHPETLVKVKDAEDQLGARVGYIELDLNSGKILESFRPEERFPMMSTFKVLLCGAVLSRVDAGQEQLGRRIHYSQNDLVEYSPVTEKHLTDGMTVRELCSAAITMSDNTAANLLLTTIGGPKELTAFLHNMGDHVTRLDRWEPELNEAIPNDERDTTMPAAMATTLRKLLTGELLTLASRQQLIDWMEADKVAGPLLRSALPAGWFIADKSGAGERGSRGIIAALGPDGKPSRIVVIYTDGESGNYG
# Protein Wnt-3a, sequence (P27467 whole entry): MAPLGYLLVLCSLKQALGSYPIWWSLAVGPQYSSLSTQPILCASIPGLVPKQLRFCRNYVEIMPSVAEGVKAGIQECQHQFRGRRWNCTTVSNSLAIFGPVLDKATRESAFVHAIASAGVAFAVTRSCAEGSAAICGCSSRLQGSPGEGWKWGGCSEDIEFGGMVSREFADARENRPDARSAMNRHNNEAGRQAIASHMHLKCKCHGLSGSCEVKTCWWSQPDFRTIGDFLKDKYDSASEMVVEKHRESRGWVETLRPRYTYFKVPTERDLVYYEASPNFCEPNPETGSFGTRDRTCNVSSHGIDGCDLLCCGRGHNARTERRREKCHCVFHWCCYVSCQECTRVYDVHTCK
# ALK tyrosine kinase receptor, sequence (Q9UM73 whole entry): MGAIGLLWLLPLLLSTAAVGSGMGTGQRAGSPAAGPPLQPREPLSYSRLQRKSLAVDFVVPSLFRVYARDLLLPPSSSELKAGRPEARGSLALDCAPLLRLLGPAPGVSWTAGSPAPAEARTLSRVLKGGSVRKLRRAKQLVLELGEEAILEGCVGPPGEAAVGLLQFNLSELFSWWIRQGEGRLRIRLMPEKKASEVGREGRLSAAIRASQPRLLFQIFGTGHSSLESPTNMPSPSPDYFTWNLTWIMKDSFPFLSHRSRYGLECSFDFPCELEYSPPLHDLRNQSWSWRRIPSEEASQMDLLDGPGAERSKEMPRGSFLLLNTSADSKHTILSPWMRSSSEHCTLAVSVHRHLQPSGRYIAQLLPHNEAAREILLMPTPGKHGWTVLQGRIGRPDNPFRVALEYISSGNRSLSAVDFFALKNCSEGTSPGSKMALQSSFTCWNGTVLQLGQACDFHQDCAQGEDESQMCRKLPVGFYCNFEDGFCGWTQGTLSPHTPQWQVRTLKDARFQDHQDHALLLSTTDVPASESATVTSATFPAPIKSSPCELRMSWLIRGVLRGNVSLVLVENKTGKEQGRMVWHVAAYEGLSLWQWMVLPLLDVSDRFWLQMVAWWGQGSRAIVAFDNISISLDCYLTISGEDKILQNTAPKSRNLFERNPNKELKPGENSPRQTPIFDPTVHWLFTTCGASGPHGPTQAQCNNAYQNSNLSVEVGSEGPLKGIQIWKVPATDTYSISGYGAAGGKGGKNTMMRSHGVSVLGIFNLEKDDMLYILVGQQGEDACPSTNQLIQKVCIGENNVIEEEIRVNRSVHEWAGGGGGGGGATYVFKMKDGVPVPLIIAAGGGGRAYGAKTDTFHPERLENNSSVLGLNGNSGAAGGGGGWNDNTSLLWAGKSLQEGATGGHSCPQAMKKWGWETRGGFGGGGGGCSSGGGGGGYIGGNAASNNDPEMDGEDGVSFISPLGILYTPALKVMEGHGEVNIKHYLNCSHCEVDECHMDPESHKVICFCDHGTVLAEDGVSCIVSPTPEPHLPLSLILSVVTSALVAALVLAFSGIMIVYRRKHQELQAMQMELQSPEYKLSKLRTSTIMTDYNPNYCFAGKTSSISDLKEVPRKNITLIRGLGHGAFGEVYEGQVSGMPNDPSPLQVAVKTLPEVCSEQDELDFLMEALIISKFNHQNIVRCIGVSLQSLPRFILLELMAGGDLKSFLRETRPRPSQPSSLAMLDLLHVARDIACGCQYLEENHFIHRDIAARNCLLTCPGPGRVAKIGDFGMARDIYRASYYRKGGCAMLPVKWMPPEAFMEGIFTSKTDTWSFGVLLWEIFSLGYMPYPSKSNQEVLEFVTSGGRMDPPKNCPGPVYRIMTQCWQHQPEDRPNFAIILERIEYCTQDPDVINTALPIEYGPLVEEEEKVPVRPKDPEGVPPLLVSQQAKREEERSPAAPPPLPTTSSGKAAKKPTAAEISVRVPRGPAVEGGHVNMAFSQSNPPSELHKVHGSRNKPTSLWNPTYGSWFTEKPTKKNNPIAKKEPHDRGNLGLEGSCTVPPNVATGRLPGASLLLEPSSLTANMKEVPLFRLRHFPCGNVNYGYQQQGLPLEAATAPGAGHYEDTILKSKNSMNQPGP
# Melanocortin receptor 4, sequence (P32245 whole entry): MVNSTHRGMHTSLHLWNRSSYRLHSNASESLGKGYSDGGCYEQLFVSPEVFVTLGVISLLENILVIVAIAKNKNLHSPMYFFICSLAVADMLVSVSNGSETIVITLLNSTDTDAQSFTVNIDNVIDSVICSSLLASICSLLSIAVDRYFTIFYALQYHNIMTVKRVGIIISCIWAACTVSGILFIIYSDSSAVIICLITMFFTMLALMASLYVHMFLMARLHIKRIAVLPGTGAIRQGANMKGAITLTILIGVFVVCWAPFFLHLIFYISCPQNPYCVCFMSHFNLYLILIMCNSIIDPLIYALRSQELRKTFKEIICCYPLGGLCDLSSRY
# Beta-lactamase (Pseudomonas aeruginosa, UniProt Q79MP6), sequence (Q79MP6 whole entry): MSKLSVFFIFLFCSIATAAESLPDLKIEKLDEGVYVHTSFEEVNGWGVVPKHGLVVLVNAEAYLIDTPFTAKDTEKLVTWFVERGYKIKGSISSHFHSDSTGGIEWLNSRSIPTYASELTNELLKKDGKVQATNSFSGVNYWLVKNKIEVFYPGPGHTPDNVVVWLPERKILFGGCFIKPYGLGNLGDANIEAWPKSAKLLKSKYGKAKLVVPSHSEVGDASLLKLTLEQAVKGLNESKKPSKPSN
# Mu-type opioid receptor, sequence (P35372 whole entry): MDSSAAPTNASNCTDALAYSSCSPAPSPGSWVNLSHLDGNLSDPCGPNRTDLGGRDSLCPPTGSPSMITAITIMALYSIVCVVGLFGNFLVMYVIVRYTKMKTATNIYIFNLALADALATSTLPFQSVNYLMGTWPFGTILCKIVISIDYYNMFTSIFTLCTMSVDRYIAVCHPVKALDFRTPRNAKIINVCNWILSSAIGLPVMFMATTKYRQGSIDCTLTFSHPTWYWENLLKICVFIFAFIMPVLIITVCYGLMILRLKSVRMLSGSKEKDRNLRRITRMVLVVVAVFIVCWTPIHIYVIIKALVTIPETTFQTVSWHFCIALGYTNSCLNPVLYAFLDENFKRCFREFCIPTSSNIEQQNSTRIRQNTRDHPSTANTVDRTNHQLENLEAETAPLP
# Delta-type opioid receptor, sequence (P41143 whole entry): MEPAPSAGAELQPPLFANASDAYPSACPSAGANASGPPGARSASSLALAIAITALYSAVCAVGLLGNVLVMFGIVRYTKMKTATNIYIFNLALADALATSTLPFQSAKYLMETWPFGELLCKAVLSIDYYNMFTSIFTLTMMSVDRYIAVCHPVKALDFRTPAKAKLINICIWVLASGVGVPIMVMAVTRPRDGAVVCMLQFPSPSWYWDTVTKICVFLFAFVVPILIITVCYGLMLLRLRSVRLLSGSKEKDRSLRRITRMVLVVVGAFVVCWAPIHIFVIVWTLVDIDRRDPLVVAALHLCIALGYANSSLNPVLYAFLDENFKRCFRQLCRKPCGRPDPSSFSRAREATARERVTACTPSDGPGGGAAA
smiles,measurement,setting,value
CCCN1CCC(=O)N([C@H](CSc2ccc(OC)cc2)Cc2ccccc2)CC1,IC50,Protein Wnt-3a,11 µM (active)
O=C(NCCCn1ccnc1)c1cnn2c1NC(c1ccccc1)CC2C(F)(F)F (centres undefined),IC50,[1],8.15 µM (active)
same,IC50,[2],4.47 µM (active)
N#Cc1sc2nc(-c3cccs3)cc(-c3ccc(F)cc3)c2c1N,EC50,Melanocortin receptor 4,> 89.2 µM (inactive)
Cc1ccc(Cn2c(=N)n(CC(O)COc3ccccc3)c3ccccc32)cc1 (centres undefined),EC50,[3],4.91 µM (active)
same,EC50,[4],5.49 µM (active)
same,EC50,[5],9.05 µM (active)
same,EC50,[6],5.07 µM (active)
same,IC50,[1],5.55 µM (active)
same,EC50,[7],> 92.5 µM (inactive)
same,EC50,Mu-type opioid receptor,35.1 µM (inactive)
same,EC50,[8],> 92.5 µM (inactive)
same,IC50,[2],7.08 µM (active)
same,AC50,[9],2.46 µM (active)
same,AC50,[10],21.4 µM (active)
same,AC50,[11],3.9 µM (active)
CC(=O)N1CCc2cc(S(=O)(=O)NCCC(=O)N3CCN(Cc4ccccc4)CC3)ccc21,EC50,Insulin-degrading enzyme [12],> 54.7 µM (inactive)
same,EC50,Insulin-degrading enzyme [13],> 54.7 µM (inactive)
same,IC50,HEK293 [14],> 89.2 µM (inactive)
same,EC50,HEK293 [15],> 54.7 µM (inactive)
CCN1CCN(C2=CC3=CC(=C(C#N)C#N)CCC3CC2)CC1 (centres undefined),IC50,[16],1.67 µM (active)
same,IC50,Beta-lactamase [17],4.22 µM (active)
same,IC50,[18],30.6 µM (not active)
same,IC50,Beta-lactamase [19],3.08 µM (active)
same,EC50,[20],> 100 µM (active)
same,EC50,Insulin-degrading enzyme [12],> 54.7 µM (inactive)
same,EC50,Insulin-degrading enzyme [13],> 54.7 µM (inactive)
same,IC50,HEK293 [14],> 89.2 µM (inactive)
same,EC50,HEK293 [15],> 54.7 µM (inactive)
NC1CCN(C(=O)c2ccc3c(c2)[nH]c(=O)c2cccn23)CC1,Ki,[21],> 3.16 µM (inactive)
same,Ki,Aurora kinase A,> 2 µM (inactive)
same,Ki,Aurora kinase B,0.158 µM (active)
N#CC(c1ccccc1[N+](=O)[O-])c1c(Cl)cnn(Cc2cccc3ccccc23)c1=O (centres undefined),IC50,[22],1.26 µM (active)
same,IC50,[23],1.26 µM (active)
N#CC(c1c(F)c(F)c(F)c(F)c1F)c1c(Cl)cnn(Cc2cccc3ccccc23)c1=O (centres undefined),IC50,[22],1.56 µM (active)
same,IC50,[23],1.56 µM (active)
O=S(=O)(Nc1ccc2c(c1)C(=NO)c1ccccc1-2)c1cccc(Cl)c1,Ki,Aurora kinase A,> 2 µM (inactive)
same,Ki,[24],3.16 µM (active)
same,Ki,Aurora kinase B,0.00398 µM (active)
